Calls of active or inactive are those of the source. The rule behind the calls is not given here.
Experiments:
D(2) dopamine receptor [1] = biological target: T1, D(2) dopamine receptor (Homo sapiens, UniProt P14416); experiment: Displacement of [3H]-N-methylspiperone from human dopamine D2 receptor expressed in HEK293 cell membranes incubated for 60 mins by microbeta scintillation counting analysis; parameters: species or system Membrane
D(3) dopamine receptor [2] = biological target: T2, D(3) dopamine receptor (Homo sapiens, UniProt P35462); experiment: Displacement of [3H]-N-methylspiperone from human dopamine D3 receptor expressed in HEK293 cell membranes incubated for 60 mins by microbeta scintillation counting analysis; parameters: species or system Membrane
T2 sequence (P35462 whole entry): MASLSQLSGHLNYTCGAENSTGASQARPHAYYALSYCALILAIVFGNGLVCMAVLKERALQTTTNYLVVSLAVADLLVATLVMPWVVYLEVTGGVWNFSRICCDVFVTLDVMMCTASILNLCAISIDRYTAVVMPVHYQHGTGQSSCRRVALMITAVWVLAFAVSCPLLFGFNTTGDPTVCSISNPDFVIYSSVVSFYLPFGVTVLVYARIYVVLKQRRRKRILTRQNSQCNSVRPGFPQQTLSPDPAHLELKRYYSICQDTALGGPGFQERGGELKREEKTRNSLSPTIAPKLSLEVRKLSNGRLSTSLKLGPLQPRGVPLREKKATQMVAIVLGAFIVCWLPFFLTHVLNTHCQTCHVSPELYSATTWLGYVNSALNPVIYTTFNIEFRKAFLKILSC

D(4) dopamine receptor = biological target: T3, D(4) dopamine receptor (Homo sapiens, UniProt P21917); experiment: Displacement of [3H]-N-methylspiperone from human dopamine D4 receptor expressed in HEK293 cell membranes incubated for 60 mins by microbeta scintillation counting analysis; parameters: species or system Membrane
T3 sequence (P21917 whole entry): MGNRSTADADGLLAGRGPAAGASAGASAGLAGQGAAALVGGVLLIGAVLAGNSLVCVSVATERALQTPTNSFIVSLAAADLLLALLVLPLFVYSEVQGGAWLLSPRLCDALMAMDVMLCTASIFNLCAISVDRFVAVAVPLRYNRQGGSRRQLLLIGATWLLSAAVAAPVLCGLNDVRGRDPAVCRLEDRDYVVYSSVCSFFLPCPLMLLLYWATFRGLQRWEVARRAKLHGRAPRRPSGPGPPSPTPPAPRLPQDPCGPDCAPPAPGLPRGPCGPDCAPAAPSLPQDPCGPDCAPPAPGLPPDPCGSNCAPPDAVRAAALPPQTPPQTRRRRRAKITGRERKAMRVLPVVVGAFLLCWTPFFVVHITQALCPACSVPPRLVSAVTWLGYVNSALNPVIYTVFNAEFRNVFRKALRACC

D(2) dopamine receptor [3] = biological target: T1, D(2) dopamine receptor; experiment: Displacement of [3H]-(R)-(+)7-OH-DPAT from human dopamine D2 receptor expressed in HEK293 cell membranes incubated for 90 mins by microbeta scintillation counting analysis; parameters: species or system Membrane
D(3) dopamine receptor [4] = biological target: T2, D(3) dopamine receptor; experiment: Displacement of [3H]-(R)-(+)7-OH-DPAT from human dopamine D3 receptor expressed in HEK293 cell membranes incubated for 90 mins by microbeta scintillation counting analysis; parameters: species or system Membrane
D(3) dopamine receptor [5] = biological target: T2, D(3) dopamine receptor; experiment: Agonist activity at human dopamine D3 receptor expressed in HEK293T cells assessed as GalphaoA activation preincubated for 5 mins with coelenterazine followed by compound addition and measured after 10 mins by BRET assay; assay type: functional, cell-based
[6] = biological target: Mu-type opioid receptor (Homo sapiens) (UniProt P35372); conditions: HEK293T, time 10.0 min
Chain of Mu-type opioid receptor (Homo sapiens) (P35372 whole entry): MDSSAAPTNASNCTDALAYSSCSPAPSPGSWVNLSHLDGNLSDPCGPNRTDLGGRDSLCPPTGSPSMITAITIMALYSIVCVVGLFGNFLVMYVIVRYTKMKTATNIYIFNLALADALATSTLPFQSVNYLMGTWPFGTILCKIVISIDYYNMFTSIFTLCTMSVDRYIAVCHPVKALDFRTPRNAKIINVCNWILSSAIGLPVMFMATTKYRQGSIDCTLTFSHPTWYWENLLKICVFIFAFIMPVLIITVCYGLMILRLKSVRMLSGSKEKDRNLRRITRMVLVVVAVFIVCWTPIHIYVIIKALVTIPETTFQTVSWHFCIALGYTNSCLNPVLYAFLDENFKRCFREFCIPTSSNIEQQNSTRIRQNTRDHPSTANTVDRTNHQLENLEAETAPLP

[7] = biological target: Mu-type opioid receptor (Homo sapiens) (UniProt P35372); conditions: HEK293T, time 10.0 min; remark: listed apart in the source
[8] = biological target: Mu-type opioid receptor (Homo sapiens) (UniProt P35372); conditions: HEK293T, time 10.0 min; remark: listed apart in the source
D(3) dopamine receptor [9] = biological target: T2, D(3) dopamine receptor; experiment: Antagonist activity at human […] expressed in HEK293T cells assessed as GalphaoA activation preincubated with compound in D-PBS for 3 hrs followed by coelenterazine addition for 5 mins once again compound addition for 10 mins by BRET assay; assay type: functional, cell-based
D(3) dopamine receptor [10] = biological target: T2, D(3) dopamine receptor; conditions: HEK293T, time 10.0 min

T1 sequence (P14416 whole entry): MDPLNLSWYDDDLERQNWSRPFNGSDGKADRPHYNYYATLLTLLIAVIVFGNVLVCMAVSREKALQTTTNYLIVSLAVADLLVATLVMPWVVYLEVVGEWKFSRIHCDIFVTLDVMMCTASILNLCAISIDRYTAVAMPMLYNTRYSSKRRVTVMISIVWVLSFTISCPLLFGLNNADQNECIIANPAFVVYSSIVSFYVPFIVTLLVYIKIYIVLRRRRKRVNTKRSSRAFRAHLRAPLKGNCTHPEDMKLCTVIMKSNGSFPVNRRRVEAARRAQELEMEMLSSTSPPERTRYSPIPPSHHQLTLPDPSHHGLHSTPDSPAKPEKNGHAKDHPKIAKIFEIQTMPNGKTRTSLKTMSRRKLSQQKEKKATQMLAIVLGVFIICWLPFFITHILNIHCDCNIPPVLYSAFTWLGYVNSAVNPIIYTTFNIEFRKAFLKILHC

SMILES | Ki (D(2) dopamine receptor [1]) [µM] | Ki (D(3) dopamine receptor [2]) [µM] | Ki (D(4) dopamine receptor) [µM] | also measured
N#CC(CCN1CCN(c2cccc(Cl)c2Cl)CC1)(c1ccccc1)c1ccccc1 | 2.63 | 2.24 | 8.49 | 
CCC(=O)C(CCN(C)C)(c1ccccc1)c1ccccc1 [NORMETHADONE] | 34.9 | 4.27 | > 100 | 
Oc1cccc([C@@]23CCC[C@@H]([C@H]2O)N(C/C=C/c2ccccc2)CC3)c1 | 7.38 | 15.7 | 36.9 | Ki (D(2) dopamine receptor [3]): 2.79 µM; Ki (D(3) dopamine receptor [4]): 20 µM
CCc1cc(Cl)c(OC)c(C(=O)NCC2CCCN2CCCCNCCC(C(=O)N(C)C)(c2ccccc2)c2ccccc2)c1O (configuration not stated) | 0.502 |  | 3.42 | Ki (D(2) dopamine receptor [3]): 0.0937 µM
CCOC(=O)/C=C1\[C@@H]2CCC[C@@]1(c1cccc(O)c1)CCN2C[C@H]1C[C@@H]1CCNC(=O)c1cc2ccccc2[nH]1 (relative stereo) | 2.86 | 1.29 | 29.2 | EC50 (D(3) dopamine receptor [5]): 1.48 µM; pEC50 [6]: inactive; pEC50 [7]: inactive; pEC50 [8]: inactive
CCOC(=O)/C=C1\[C@@H]2CCC[C@@]1(c1cccc(O)c1)CCN2CCc1ccccc1 | 0.636 |  | 5.47 | Ki (D(2) dopamine receptor [3]): 0.186 µM
CCc1cc(Cl)c(OC)c(C(=O)NC[C@@H]2C[C@@H](OCCCCNCCC(C(=O)N(C)C)(c3ccccc3)c3ccccc3)CN2)c1O | 0.00941 | 0.00221 | 0.674 | 
CN(C)CCC(C(=O)N(C)C)(c1ccccc1)c1ccccc1 | > 100 | 36.9 | 20.2 | 
CN(C)CCC(C#N)(c1ccccc1)c1ccccc1 | 17.9 | 16.1 | 23.2 | 
CCOC(=O)/C=C1\[C@@H]2CCC[C@@]1(c1cccc(O)c1)CCN2 | > 100 | > 100 | > 100 | 
N#CC(CCNCCC(O)CN1CCN(c2cccc(Cl)c2Cl)CC1)(c1ccccc1)c1ccccc1 (configuration not stated) | 0.903 | 0.46 | 0.426 | 
CCc1cc(Cl)c(OC)c(C(=O)NC[C@@H]2CCCN2CCCCNCCC(C(=O)N(C)C)(c2ccccc2)c2ccccc2)c1O | 1.73 |  | 6.61 | 
O=C(NCCCCN1CC[C@]2(c3cccc(O)c3)CCC[C@H]1[C@@H]2O)c1cc2ccccc2[nH]1 | 4.53 | 5.63 | 5.63 | 
CCOC(=O)/C=C1\[C@@H]2CCC[C@@]1(c1cccc(O)c1)CCN2CCN1CCN(c2cccc(Cl)c2Cl)CC1 | 0.0516 |  | 1.6 | 
CCOC(=O)/C=C1\[C@@H]2CCC[C@@]1(c1cccc(O)c1)CCN2C[C@@H]1C[C@H]1CCNC(=O)c1cc2ccccc2[nH]1 (relative stereo) | 4.86 | 2.3 | 17.6 | pEC50 [6]: inactive; pEC50 [7]: inactive; pEC50 [8]: inactive
CCc1cccc(N2CCN(CCC(C(=O)N(C)C)(c3ccccc3)c3ccccc3)CC2)c1Cl | 0.043 | 0.069 | 0.0648 | Ki (D(2) dopamine receptor [3]): 0.0203 µM; Ki (D(3) dopamine receptor [4]): 0.197 µM
CCc1cccc(N2CCN(CCC(c3cccc(O)c3)c3cccc(O)c3)CC2)c1Cl | 0.187 | 0.2 | 0.0192 | 
Oc1cccc([C@]23CCC[C@H](NCC2)[C@@H]3O)c1 | > 100 | > 100 | > 100 | Ki (D(2) dopamine receptor [3]): > 100 µM; Ki (D(3) dopamine receptor [4]): > 100 µM
N#CC(CCNCCCCN1CCN(c2cccc(Cl)c2Cl)CC1)(c1ccccc1)c1ccccc1 | 0.149 |  | 0.0259 | Ki (D(2) dopamine receptor [3]): 0.0363 µM
CCc1cc(Cl)c(OC)c(C(=O)NC[C@@H]2CCCN2CCC(C#N)(c2ccccc2)c2ccccc2)c1O | 12.4 | 1.55 | > 100 | 
CN1CCC(c2ccccc2)(c2ccccc2)C1 | > 100 | > 100 | 35.4 | 
CCC(=O)N1CCC(c2ccccc2)(c2ccccc2)C1 | > 100 | > 100 | > 100 | 

SMILES | Ki (D(2) dopamine receptor [1]) [µM] | Ki (D(3) dopamine receptor [2]) [µM] | Ki (D(4) dopamine receptor) [µM] | also measured
CN(C)C(=O)C(CCNCCc1ccccc1)(c1ccccc1)c1ccccc1 | 3.65 | 2.08 | 12.6 | 
N#CC(CCNCCc1ccccc1)(c1ccccc1)c1ccccc1 | 17.6 | 8.96 | 13.9 | 
Oc1cccc([C@]23CCC[C@H](NCC2)[C@H]3O)c1 | > 100 | > 100 | > 100 | Ki (D(2) dopamine receptor [3]): > 100 µM; Ki (D(3) dopamine receptor [4]): > 100 µM
CN(C)C(=O)C(CCNCCCCN1CCc2ccc(C#N)cc2C1)(c1ccccc1)c1ccccc1 | 1.24 | 1.06 | 58.9 | 
CCc1cccc(N2CCN(CCC(c3cccc(OC)c3)c3cccc(OC)c3)CC2)c1Cl | 0.17 | 0.0938 | 0.0634 | 
CN(C)C(=O)C(CCN1CCN(c2cccc(Cl)c2Cl)CC1)(c1ccccc1)c1ccccc1 | 0.0747 |  | 0.102 | Ki (D(2) dopamine receptor [3]): 0.0313 µM
O=C(NCCCCN1CC[C@]2(c3cccc(O)c3)CCC[C@H]1[C@H]2O)c1cc2ccccc2[nH]1 | 1.31 |  | 3.81 | 
CCc1cccc(N2CCN(CCC(c3cccc(O)c3)c3cccc(OC)c3)CC2)c1Cl (configuration not stated) | 0.19 |  | 0.0385 | 
CN(C)C(=O)C(CCNCCCCN1CCN(c2cccc(Cl)c2Cl)CC1)(c1ccccc1)c1ccccc1 |  |  | 0.378 | 
CCOC(=O)/C=C1\[C@@H]2CCC[C@@]1(c1cccc(O)c1)CCN2CCCCNC(=O)c1cc2ccccc2[nH]1 | 2.95 | 13.7 | 13.8 | pIC50 (D(3) dopamine receptor [9]): > 5; pEC50 [6]: inactive; pEC50 [7]: inactive; pEC50 [8]: inactive; pEC50 (D(3) dopamine receptor [10]): inactive
COc1cccc(C(=CCNCCCCN2CCN(c3cccc(Cl)c3Cl)CC2)c2cccc(OC)c2)c1 | 5.24 | 0.342 | 26.1 | 
CN(C)C(=O)C(CCNCCC(O)CN1CCN(c2cccc(Cl)c2Cl)CC1)(c1ccccc1)c1ccccc1 (configuration not stated) | 0.7 | 0.572 | 2.78 | Ki (D(2) dopamine receptor [3]): 0.167 µM; Ki (D(3) dopamine receptor [4]): 0.209 µM
Oc1cccc(C(CCNCCCCN2CCN(c3ccccc3)CC2)c2cccc(O)c2)c1 | 0.987 | 0.249 | 0.422 | 
CCC(=O)C(CC(C)N(C)C)(c1ccccc1)c1ccccc1 (configuration not stated) [METHADONE] | > 100 | 2.11 | 26.2 | 
CCOC(=O)/C=C1\[C@@H]2CCC[C@@]1(c1cccc(O)c1)CCN2CC1CC1CCNC(=O)c1cc2ccccc2[nH]1 (some centres not stated) | 3.89 | 4.35 | 23.4 | 
CCc1cc(Cl)c(OC)c(C(=O)NCC2CCCN2CC(=O)N2CCC(c3ccccc3)(c3ccccc3)C2)c1O (configuration not stated) | 2.38 | 0.288 | 31 | 
N#CC(CCNCCCCC(=O)N1CCN(c2cccc(Cl)c2Cl)CC1)(c1ccccc1)c1ccccc1 | 1.94 | 1.36 | 3.93 | 
CCc1cccc(N2CCN(CCCCNCCC(C(=O)N(C)C)(c3ccccc3)c3ccccc3)CC2)c1Cl | 0.0621 | 0.0178 | 0.503 | Ki (D(2) dopamine receptor [3]): 0.0442 µM; Ki (D(3) dopamine receptor [4]): 0.0383 µM
CN(C)C(=O)C(CCN1CCC(O)(c2ccc(Cl)cc2)CC1)(c1ccccc1)c1ccccc1 [LOPERAMIDE] | 5.79 | […] | 1.85 | 
CN(C)CCC(C(=O)NCCCCN1CCN(c2cccc(Cl)c2Cl)CC1)(c1ccccc1)c1ccccc1 | 0.0427 | 0.0118 | 0.466 | 
CN(C)C(=O)C(CCN1CCc2ccc(C#N)cc2C1)(c1ccccc1)c1ccccc1 | 2.27 | 1.63 | 18 | 
CCc1cccc(N2CCN(CC(O)CCNCCC(C(=O)N(C)C)(c3ccccc3)c3ccccc3)CC2)c1Cl (configuration not stated) | 0.457 | 0.123 | 1.26 | Ki (D(2) dopamine receptor [3]): 0.114 µM; Ki (D(3) dopamine receptor [4]): 0.123 µM

Source: ChEMBL document CHEMBL5046218, “Novel Dual-Target μ-Opioid Receptor and Dopamine D3 Receptor Ligands as Potential Nonaddictive Pharmacotherapeutics for Pain Management” (J Med Chem, 2021)
